Where a name gives a salt, the structure may show the parent alone.
Legend:
Type in all cases: cell-based, human
UM-UC-14 cells = assay: MTT vitality assay, 72 h; conditions: TFA up to 25 μM
Experimental: The sensitizing effect in this cell model was more pronounced for Co(acac)2LPonvs.Co(Meacac)2LPon reflecting the differences in the reduction potentials. Purification of the novel compounds was performed in the presence of 0.1% TFA, leading to the respective TFA salts.
As mentioned above, two stereoisomers of Co(acac)2LPon could be isolated. To clarify, whether there are differences in their anticancer activity, they were analyzed (in addition to the isomeric mixture) in UM-UC-14 cells by MTT assay. […] Accordingly, values for the isomeric mixture positioned intermediate. As expected, both stereoisomers and the isomeric mixture were distinctly activated by hypoxic conditions. The moderately higher activity of isomer 1 remained also under hypoxic conditions (Fig. S12A ^†). […]
Cells were seeded (3–7 × 10^4 cells per well) in 96-well plates and after 24 h recovery treated with increasing concentrations of compounds in triplicates. After 72 h drug exposure under normoxic or hypoxic cell culture conditions (0.1% O2) (ProOx Model C21 system, BioSpherix), the proportion of viable cells was determined by 3-(4,5-dimethylthiazol-2-yl)-2,5-diphenyltetrazolium bromide (MTT)-vitality assay (EZ4U, Biomedica, Vienna, Austria) or by luminescence assay based on adenosine triphosphate quantification (CellTiter-Glo, Promega, Madison, Wisconsin) following the manufacturer's recommendations. […]

[1] = test system: FGFR3-driven UM-UC-14 urothelial cancer cell model; assay: colony formation assay, 5 d; conditions: normoxic
Experimental: In order to investigate the impact of long-term oxygen restriction, clonogenic assays were performed in the FGFR3-dependent UM-UC-14 cell model (Fig. 9C).
UM-UC-14 cells were seeded at low densities of 3 × 10^3 cells per well in 24-well plates in 500 μL and after 24 h recovery treated with 100 μL of increasing concentrations of compounds in duplicates. Following drug exposure time of 5 days under normoxic or hypoxic (0.1% O2) culture conditions, cells were washed with phosphate-buffered saline (PBS), fixed with ice-cold methanol for 30 min at 4 °C and stained with crystal violet. Digital photographs were taken using a Nikon D3200 camera and processed with ImageJ software. For quantification, crystal violet was eluted using 2% sodium dodecyl sulfate (SDS) and color absorbance was measured at 560 nm at the Tecan infinite 200Pro (Zurich, Switzerland). Values are given in arbitrary units (a.u.) as mean ± SD normalized to untreated control.

[2] = test system: p-ERK1/2 and p-S6 in K-562 cells; assay: western blot of downstream signalling, 12 h; conditions: K-562, 12 h, western blot
Experimental: Fig. 10 Impact of the cobalt(III) complexes on the ERK1/2 and S6 under normoxic and hypoxic conditions. K-562 cells were treated with the compounds, after 12 h cell lysates were prepared and protein expression as well as phosphorylation levels of downstream pathways (p-ERK1/2 and p-S6) analyzed by western blotting. One representative experiment out of three is shown. The ratio of phosphorylated to total protein is given between the respective lanes.
K-562 cells were plated (5 × 10^5 cells per well) in 6-well plates and allowed to recover for 24 h. Subsequently, the cells were treated with the drugs in different concentrations. After 12 h cells were harvested, proteins were isolated, resolved by sodium dodecyl sulfate polyacrylamide gel electrophoresis (SDS/PAGE), and transferred onto a polyvinylidene difluoride membrane for western blotting. The following antibodies were used: ERK1/2 (p44/42) rabbit monoclonal antibody (mAb) (137F5, #4695), phospho-ERK1/2 rabbit mAb (Thr202/Tyr204) (20G11, #4376), phospho-S6 rabbit pAb (Ser240/244, #2215) (Cell Signaling Technology, Beverly, MA, USA), S6 mouse mAb (C-8. #sc-74459) (Santa Cruz Biotechnology, TX, USA) and β-actin mouse mAb (#A5441, Sigma). All primary antibodies were used in 1 : 1000 dilutions (in Tris-buffered saline containing 0.1% Tween20 (TBST) + 3% bovine serum albumin (BSA)). Secondary goat anti-mouse-IgG (Fc specific)-peroxidase antibody (#A0168, Sigma) and horseradish peroxidase(HRP)-labeled mouse anti-rabbit IgG (#sc-2357, Santa Cruz Biotechnology) were used at working dilutions of 1 : 10 000 (in TBST + 1% BSA).

Structure (SMILES)	impact on cell viability (UM-UC-14 cells)	inhibition of clonogenic cell growth [1] [%]	activity on ERK1/2 and S6 phosphorylation, normoxic vs hypoxic [2]
O=C(O)C(F)(F)F [TFA, trifluoroacetic acid]	no impact on cell viability	–	–
Cc1ccc(C(=O)Nc2ccc(CN3CCN(C)CC3)c(C(F)(F)F)c2)cc1C#Cc1cnc2cccnn12 [ponatinib, reference compound]	–	95	equally active under the two oxygen conditions

Reference: PMC8129988 (Inorganic Chemistry Frontiers, 2021)
